From PubChem BioAssay AID623871 (Sanford-Burnham Center for Chemical Genomics, 2012) come the findings set out here.

SMILES strings stand for the structures. The source made the active and inactive calls.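 How the source made its calls: active means IC50 at or below 10 µM; inactive means the rest.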

This assay concerns H9c2 cardiomyoblasts, 2-deoxyglucose injury, ATP luminescence, 2 h. The assay is described as follows: cardiomyoblast survival under 2-deoxyglucose stress – cell-based, H9c2, ATP luminescence, SAR follow-up (AID 623871).
The term IC50 denotes the concentration that inhibits the measured activity by half. Take `CC(C)CCNC(=O)C(c1ccc(O)cc1)N(C(=O)c1snc(C(N)=O)c1N)c1ccccc1F` (centres undefined): the IC50 was > 79 µM (inactive).
Regarding `COc1cccc(NC(=O)C(Sc2nc3ccccc3c(=O)n2CC(C)C)c2ccccc2)c1` (centres undefined), the IC50 was 19.5 µM (inactive).
Under `CCN(CC)S(=O)(=O)c1cc(C(=O)N2CCN(Cc3cccc4cccnc34)CC2)ccc1C` stands > 79 µM (inactive); under `COc1cccc(CN(C)C(=O)c2cc(-c3ccccc3)nc3ccc(C)cc23)c1OC`, > 79 µM (inactive).
Under `NC(=O)c1nsc(C(=O)N(c2cccc(F)c2)C(C(=O)NC2CCCC2)c2ccc(O)cc2)c1N` (centres undefined) stands > 79 µM (inactive); under `Cc1ccc2cc(CN(Cc3cccnc3)S(=O)(=O)c3ccc(F)cc3)c(=O)[nH]c2c1`, > 79 µM (inactive).
With `COc1ccc(-n2cc(-c3ccccc3)c3c(NCc4ccccc4)ncnc32)cc1` the figure was 13.6 µM (inactive); with `NC(=O)c1nsc(C(=O)N(Cc2ccccc2)C(C(=O)NCc2ccc(F)cc2)c2ccc(O)cc2)c1N` (centres undefined), > 79 µM (inactive); with `CCCN(CC(=O)Nc1ccccc1OC)C(=O)c1cc(-c2cccs2)nn1-c1ccccc1`, > 79 µM (inactive).
In the case of `CCN(CC)C(=O)C(=O)c1c(-c2ccccc2)[nH]c2ccccc12`, the IC50 is > 79 µM (inactive).
Under `COc1ccc(-c2cc(C(=O)N(C)Cc3ccc(OC)c(OC)c3OC)c3ccccc3n2)cc1OC` stands 7.31 µM; under `COc1cccc(CN(C)C(=O)c2cc(-c3ccc(OC)c(OC)c3)nc3ccccc23)c1`, 15.1 µM (inactive).
Under `COCCNC(=O)C(c1ccc(O)cc1)N(C(=O)c1snc(C(N)=O)c1N)c1ccccc1F` (centres undefined) stands > 79 µM (inactive); under `COc1ccccc1N1C(=O)c2ccccc2N2C(=O)c3c(ccc(OC)c3OC)C12` (centres undefined), 42.5 µM (inactive).
Under `O=C(C(=O)N1CCCCC1)c1c(-c2ccccc2)[nH]c2ccccc12` stands > 79 µM (inactive); under `COc1ccc(-n2cc(-c3ccccc3)c3c(N4CCCCC4)ncnc32)cc1`, 10.6 µM (inactive); under `COCCn1c(SC(C(=O)Nc2cc(C)ccc2C)c2ccccc2)nc2ccccc2c1=O` (centres undefined), 4.01 µM (inactive).
With `Cc1ccc(C)c(S(=O)(=O)N2CCN(C(=O)c3cc4cc(C)ccc4nc3C)CC2)c1`, the IC50 was 46.2 µM (inactive).
Under `COc1ccc(S(=O)(=O)N(Cc2cccnc2)Cc2cc3ccccc3[nH]c2=O)cc1` stands 53.9 µM (inactive); under `CCCn1c(SC(C(=O)Nc2cccc(OC)c2)c2ccccc2)nc2ccccc2c1=O` (centres undefined), > 79 µM (inactive).
`COc1ccc(-c2cc(C(=O)N(C)C)c3ccccc3n2)cc1OC`: the IC50 was > 79 µM (inactive).
Regarding `CCN(CC(=O)Nc1ccc(OC)cc1)C(=O)c1cc(-c2cccs2)nn1-c1ccccc1`, the IC50 is 6.24 µM.
Under `COc1ccc2c(c1OC)C(=O)N1c3ccccc3C(=O)N(c3ccccc3C)C21` (centres undefined) stands 36.1 µM (inactive).
Under `COc1ccc(-c2cc(C(=O)NCc3ccccc3)c3ccccc3n2)cc1OC` stands > 79 µM (inactive); under `COc1ccc(-c2cc(C(=O)NCc3ccco3)c3ccccc3n2)cc1OC`, 39.2 µM (inactive); under `O=C1c2ccccc2N2C(=O)c3ccccc3[C@H]2N1c1ccccc1`, 34.3 µM (inactive).
With `COc1ccc2cc(C(=O)N3CCN(S(=O)(=O)c4ccc(C)cc4C)CC3)c(C)nc2c1` the figure was > 79 µM (inactive); with `Cc1ccc2cc(CN(C)S(=O)(=O)c3ccc(F)cc3)c(=O)[nH]c2c1`, > 79 µM (inactive).
As to `COc1ccc2cc(C(=O)N3CCN(S(=O)(=O)c4cc(C)ccc4C)CC3)c(C)nc2c1`, the IC50 is > 79 µM (inactive).
`O=C(C(=O)N1CCCC1)c1c(-c2ccccc2)[nH]c2ccccc12`: the IC50 was > 79 µM (inactive).
Turning to `COc1ccc(NC(=O)CN(C)C(=O)c2cc(-c3cccs3)nn2-c2ccccc2)cc1`, the IC50 was 38.6 µM (inactive).
With `COc1ccc(-n2cc(-c3ccccc3)c3c(N4CCCC4)ncnc32)cc1` the figure was > 79 µM (inactive); with `Cc1ccc(S(=O)(=O)N(Cc2cccnc2)Cc2cc3ccccc3[nH]c2=O)cc1`, > 79 µM (inactive).
With `Cc1ccc(NC(=O)CN(C)C(=O)c2cc(-c3cccs3)nn2-c2ccccc2)cc1` the figure was 27.2 µM (inactive).
Under `Cc1ccccc1N(C(=O)c1snc(C(N)=O)c1N)C(C(=O)NCc1ccc(F)cc1)c1ccc(O)cc1` (centres undefined) stands > 79 µM (inactive).
With `COc1cccc(NC(=O)CN(C)C(=O)c2cc(-c3cccs3)nn2-c2ccccc2)c1`, the IC50 was > 79 µM (inactive).
Consider `COc1ccc(N2C(=O)c3ccccc3N3C(=O)c4c(ccc(OC)c4OC)C23)cc1` (centres undefined), for which the IC50 was 29.3 µM (inactive).
With `Cc1ccc(-c2[nH]c3ccccc3c2C(=O)C(=O)N(C)C)cc1` the figure was > 79 µM (inactive); with `COc1ccc2c(c1OC)C(=O)N1c3ccccc3C(=O)N(c3cccc(Br)c3)C21` (centres undefined), 10.6 µM (inactive).
Under `O=c1[nH]c2ccccc2cc1CN(Cc1ccco1)S(=O)(=O)c1ccc(F)cc1` stands > 79 µM (inactive); under `COc1ccc2c(=O)c(C(=O)N3CCN(S(=O)(=O)c4c(C)cc(C)cc4C)CC3)c[nH]c2c1`, > 79 µM (inactive); under `COc1ccc2c(c1OC)C(=O)N1c3ccccc3C(=O)N(c3ccc(F)cc3)C21` (centres undefined), 39.4 µM (inactive).
Under `Cc1ccc(S(=O)(=O)N2CCN(C(=O)c3cc(=O)[nH]c4ccccc34)CC2)cc1C` stands 33.4 µM (inactive); under `COc1cc(-c2cc(C(=O)Nc3cccc(C(C)=O)c3)c3ccccc3n2)cc(OC)c1OC`, 10.7 µM (inactive).
